From the supplement of paper PMC10307832

How the values were obtained:
Assay in all cases: relative viability (nuclei count vs DMSO), 5 days (fraction); higher = more cells survive
IU1-47 + Palbociclib = compound: CC1=CC(=C(N1C2=CC=C(C=C2)Cl)C)C(=O)CN3CCCCC3 [IU1-47] + CC(=O)c1c(C)c2cnc(Nc3ccc(N4CCNCC4)cn3)nc2n(C2CCCC2)c1=O [Palbociclib] (partner 0.5 µM)
Outline: (§1)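 The day after seeding in 1536-well plates, lung cancer cell lines were treated by pin tool with a single drug, or with a fixed anchor-drug dose together with five library-drug doses (not always all listed) in √10 steps. After 5 days, a combined fix-and-stain solution (final 0.05% Triton X-100, 1% formaldehyde, 1 ug/ml Hoechst) was added. Nuclei counted on 4× images gave relative viability as treated counts over vehicle counts, reported as the median of duplicate plates.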

FG-4592 + Pictilisib = compound: Cc1nc(C(=O)NCC(=O)O)c(O)c2ccc(Oc3ccccc3)cc12 [FG-4592] + CS(=O)(=O)N1CCN(Cc2cc3nc(-c4cccc5[nH]ncc45)nc(N4CCOCC4)c3s2)CC1 [Pictilisib] (partner 1 µM)
Outline: as §1

IU1-47 + Alpelisib = compound: CC1=CC(=C(N1C2=CC=C(C=C2)Cl)C)C(=O)CN3CCCCC3 [IU1-47] + Cc1nc(NC(=O)N2CCC[C@H]2C(N)=O)sc1-c1ccnc(C(C)(C)C(F)(F)F)c1 [Alpelisib] (partner 2 µM)
Outline: as §1

FG-4592 + Pemetrexed = compound: Cc1nc(C(=O)NCC(=O)O)c(O)c2ccc(Oc3ccccc3)cc12 [FG-4592] + Nc1nc2[nH]cc(CCc3ccc(C(=O)N[C@@H](CCC(=O)O)C(=O)O)cc3)c2c(=O)[nH]1 [Pemetrexed] (partner 0.2 µM)
Outline: as §1

| Cell Line | relative viability (IU1-47 + Palbociclib; first compound 0.08 µM) | relative viability (IU1-47 + Palbociclib; first compound 0.253 µM) | relative viability (IU1-47 + Palbociclib; first compound 0.8 µM) | relative viability (IU1-47 + Palbociclib; first compound 2.53 µM) | relative viability (IU1-47 + Palbociclib; first compound 8 µM) | relative viability (FG-4592 + Pictilisib; first compound 0.08 µM) | relative viability (FG-4592 + Pictilisib; first compound 0.253 µM) | relative viability (FG-4592 + Pictilisib; first compound 0.8 µM) | relative viability (FG-4592 + Pictilisib; first compound 2.53 µM) | relative viability (FG-4592 + Pictilisib; first compound 8 µM) | relative viability (IU1-47 + Alpelisib; first compound 0.08 µM) | relative viability (IU1-47 + Alpelisib; first compound 0.253 µM) | relative viability (IU1-47 + Alpelisib; first compound 0.8 µM) | relative viability (IU1-47 + Alpelisib; first compound 8 µM) | relative viability (FG-4592 + Pemetrexed; first compound 0.08 µM) | relative viability (FG-4592 + Pemetrexed; first compound 0.253 µM) | relative viability (FG-4592 + Pemetrexed; first compound 2.53 µM) | relative viability (FG-4592 + Pemetrexed; first compound 8 µM) | relative viability (IU1-47 + Alpelisib; first compound 2.53 µM) | relative viability (FG-4592 + Pemetrexed; first compound 0.8 µM) |
| --- | --- | --- | --- | --- | --- | --- | --- | --- | --- | --- | --- | --- | --- | --- | --- | --- | --- | --- | --- | --- |
| PC-3 [JPC-3] | 0.562 | 0.531 | 0.602 | 0.546 | 0.559 | 0.717 | 0.7 | 0.59 | 0.764 | 0.791 | 1.08 | 0.982 | 1.04 | 1.01 | 1.09 | 1.02 | 1.19 | 1.05 | – | – |
| EMC-BAC-2 | 0.521 | 0.541 | 0.512 | 0.507 | 0.519 | 0.439 | 0.476 | 0.396 | 0.564 | 0.445 | 0.768 | 0.824 | 0.793 | 0.711 | 0.407 | 0.407 | 0.434 | 0.423 | 0.749 | 0.447 |
| LK-2 | 1.04 | 1.03 | 0.568 | 0.68 | 0.559 | – | 0.638 | – | 0.64 | 0.475 | 1.13 | 1.23 | 1.63 | 0.628 | 0.26 | 0.277 | 0.239 | 0.268 | 0.997 | – |
| NCI-H2126 | 0.392 | 0.352 | 0.359 | 0.364 | 0.395 | 0.487 | 0.483 | 0.449 | 0.511 | 0.531 | 0.759 | 0.814 | 0.78 | 0.707 | 0.701 | 0.583 | 0.609 | 0.696 | 0.55 | 0.656 |
| NCI-H3122 | 0.186 | 0.189 | 0.18 | 0.275 | 0.212 | 0.735 | 0.57 | 0.511 | 0.583 | 0.605 | 0.82 | 1.02 | 0.97 | 0.724 | 0.197 | 0.191 | 0.187 | 0.211 | 0.967 | 0.194 |
| NCI-H1975 | 0.586 | 0.547 | 0.868 | 0.611 | 0.364 | 0.284 | 0.266 | 0.259 | 0.253 | 0.244 | 0.684 | 0.619 | 0.708 | 0.444 | 0.27 | 0.293 | 0.268 | 0.307 | 0.659 | 0.292 |
| NCI-H1299 | – | – | – | – | – | 0.913 | 0.645 | 0.915 | 0.724 | 0.752 | 1.05 | 1.11 | 1.13 | 0.987 | – | – | – | – | 1.13 | – |
| NCI-H727 | 0.642 | 0.648 | 0.606 | 0.686 | 0.669 | 0.311 | 0.274 | 0.307 | 0.335 | 0.452 | 0.712 | – | 0.647 | 0.377 | – | – | – | – | 0.626 | – |
| ABC-1 | 0.763 | 0.921 | 0.65 | – | 0.582 | 0.778 | – | 0.55 | 0.7 | 0.539 | 1.12 | 1.3 | 0.977 | 1.1 | – | – | – | – | – | – |
| NCI-H1650 | 0.322 | 0.313 | 0.27 | 0.317 | 0.287 | 0.428 | 0.549 | 0.44 | 0.586 | 0.617 | – | – | – | – | 0.388 | 0.346 | 0.362 | 0.344 | – | 0.409 |
| ChaGo-K-1 | 0.96 | 0.915 | 1.05 | 0.897 | 0.819 | 0.769 | 0.714 | 0.452 | 0.791 | 0.544 | – | – | – | – | 0.266 | 0.258 | 0.26 | 0.274 | – | 0.26 |
| NCI-H1648 | 0.285 | 0.289 | 0.282 | 0.249 | 0.265 | – | – | – | – | – | – | – | – | – | 0.753 | 0.786 | 0.595 | 1.12 | – | – |
| NCI-H596 | – | – | – | – | – | 0.337 | 0.359 | – | 0.377 | 0.433 | 0.638 | 0.44 | 0.0053 | 0.49 | 0.455 | 0.521 | 0.538 | 0.457 | 0.429 | – |
| NCI-H1563 | – | – | – | – | – | 0.655 | 0.624 | 0.657 | 0.648 | 0.669 | 0.909 | 0.87 | 0.871 | 0.816 | 0.628 | 0.732 | 0.759 | 0.715 | 0.942 | 0.6 |
| A549 | – | – | – | – | – | 0.488 | 0.455 | 0.452 | 0.489 | 0.456 | 0.795 | 0.767 | 0.751 | 0.642 | – | – | – | – | 0.936 | – |
| NCI-H522 | 0.987 | 0.988 | 1.36 | 0.845 | 0.956 | – | – | – | – | – | – | – | – | – | 1.11 | 0.878 | 0.728 | 0.869 | – | – |
| SW 900 | 0.53 | – | 0.564 | 0.621 | 0.513 | – | – | – | – | – | – | – | – | – | – | 0.48 | 0.493 | 0.487 | – | – |
| IA-LM | – | – | – | – | – | 0.358 | 0.291 | 0.308 | 0.295 | 0.201 | 0.738 | 0.595 | 0.854 | 0.526 | – | – | – | – | 0.679 | – |
| EBC-1 | – | – | – | – | – | 0.401 | 0.371 | 0.417 | 0.387 | 0.335 | 0.863 | 0.742 | 0.805 | 0.676 | – | – | – | – | 0.722 | – |
